What all share (assay type): biochemical
The target of one assay is ADAM17 (TACE) (Homo sapiens, UniProt P78536). Kind of assay: TACE fluorometric inhibition assay (Enzo kit BML-AK310). The settings on record: quenched fluorogenic peptide, ex/em 320/420 nm; read-out: TACE IC50 class. The gist of the method:
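Kit-based TACE assay run per manufacturer's protocol, using quenched fluorogenic peptide Mca-PLAQAV-Dpa-RSSSR-NH2 whose cleavage raises Mca fluorescence. Signal read at ex/em 320/420 nm; IC50 (nM) derived from inhibition curves of normalized values.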

Another assay addresses T1, MMP2 (Homo sapiens, UniProt P08253).
T1 sequence (P08253 110-660): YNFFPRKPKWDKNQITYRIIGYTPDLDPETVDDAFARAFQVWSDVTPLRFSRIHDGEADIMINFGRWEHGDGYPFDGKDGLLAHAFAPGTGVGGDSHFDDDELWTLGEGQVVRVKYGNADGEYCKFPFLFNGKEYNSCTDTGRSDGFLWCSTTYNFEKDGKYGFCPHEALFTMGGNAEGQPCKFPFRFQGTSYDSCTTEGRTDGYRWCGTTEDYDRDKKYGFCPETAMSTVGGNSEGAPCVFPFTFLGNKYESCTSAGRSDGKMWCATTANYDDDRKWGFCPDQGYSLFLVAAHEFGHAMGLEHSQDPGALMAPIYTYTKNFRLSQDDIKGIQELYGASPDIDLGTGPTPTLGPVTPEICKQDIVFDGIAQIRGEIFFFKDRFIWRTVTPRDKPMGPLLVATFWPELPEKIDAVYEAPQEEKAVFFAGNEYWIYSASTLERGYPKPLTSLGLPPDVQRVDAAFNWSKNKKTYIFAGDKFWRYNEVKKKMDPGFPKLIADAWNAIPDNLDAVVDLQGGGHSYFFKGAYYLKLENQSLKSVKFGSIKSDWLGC
Kind of assay: MMP-2 colorimetric inhibition assay (Enzo kit BML-AK408). Particulars: thiopeptide substrate, absorbance 415 nm; read-out: MMP 2 IC50 class. The gist of the method:
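Cleavage of the thiopeptide Ac-PLG-[2-mercapto-4-methylpentanoyl]-LG-OC2H5 releases a sulfhydryl that reacts with DTNB, read at 415 nm per the kit protocol. IC50 values (nM) come from inhibition curves of normalized data.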

For the next assay, the target named is MMP9 (Homo sapiens, UniProt P14780). Kind of assay: MMP-9 colorimetric inhibition assay (Enzo kit BML-AK410). The settings on record: thiopeptide substrate, absorbance 415 nm; read-out: MMP 9 IC50 class. The method in brief: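 Colorimetric thioester-substrate assay: hydrolysis of Ac-PLG-[2-mercapto-4-methylpentanoyl]-LG-OC2H5 frees a thiol that reacts with DTNB, read at 415 nm. Run per kit protocol. IC50 (nM) taken from inhibition curves of normalized values.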
Chain of MMP9 (P14780 94-707): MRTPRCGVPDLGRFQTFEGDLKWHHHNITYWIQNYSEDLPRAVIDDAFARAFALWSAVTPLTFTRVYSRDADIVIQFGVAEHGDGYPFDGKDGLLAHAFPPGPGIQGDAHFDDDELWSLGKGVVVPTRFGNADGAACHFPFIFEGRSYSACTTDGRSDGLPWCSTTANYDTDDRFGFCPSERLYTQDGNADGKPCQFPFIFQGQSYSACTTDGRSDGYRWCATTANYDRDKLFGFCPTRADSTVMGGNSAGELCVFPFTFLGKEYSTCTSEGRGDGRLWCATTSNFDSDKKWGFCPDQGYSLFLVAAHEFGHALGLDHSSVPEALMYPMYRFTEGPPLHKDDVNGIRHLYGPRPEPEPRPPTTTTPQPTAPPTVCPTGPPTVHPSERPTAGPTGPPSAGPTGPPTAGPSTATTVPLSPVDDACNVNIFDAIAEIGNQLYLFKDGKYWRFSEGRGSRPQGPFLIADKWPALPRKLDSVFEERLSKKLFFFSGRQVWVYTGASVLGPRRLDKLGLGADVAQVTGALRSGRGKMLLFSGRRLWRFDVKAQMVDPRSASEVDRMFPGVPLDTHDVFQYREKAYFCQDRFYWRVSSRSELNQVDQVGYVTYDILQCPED

A further assay concerns the target T2, MMP13 (Homo sapiens, UniProt P45452).
T2 construct: purchased Enzo Life Sciences, Inc. BML-AK412
In words: MMP-13 colorimetric inhibition assay (Enzo kit BML-AK412). Particulars: thiopeptide substrate, absorbance 415 nm; read-out: MMP 13 IC50 class. The gist of the method: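 Thiopeptide chromogenic substrate (Ac-PLG-[2-mercapto-4-methylpentanoyl]-LG-OC2H5); MMP-13 hydrolysis of the thioester yields a thiol that reacts with DTNB, read at 415 nm. IC50 values (nM) derived from inhibition curves of normalized data.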

The next assay has as its target T3, MMP1 (Homo sapiens, UniProt P03956).
T3 sequence (P03956 100-269 limits assumed): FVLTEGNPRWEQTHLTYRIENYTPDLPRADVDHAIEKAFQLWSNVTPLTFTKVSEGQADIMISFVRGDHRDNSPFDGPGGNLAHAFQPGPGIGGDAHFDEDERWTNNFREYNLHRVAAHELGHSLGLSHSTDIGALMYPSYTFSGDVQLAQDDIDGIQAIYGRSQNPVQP
In words: MMP-1 colorimetric inhibition assay (Enzo kit BML-AK404). The settings on record: thiopeptide substrate, absorbance 415 nm; read-out: MMP 1 IC50 class. The method in brief: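 Colorimetric kit run per manufacturer protocol. MMP-1 cleaves a thiopeptide substrate (Ac-PLG-[2-mercapto-4-methylpentanoyl]-LG-OC2H5); released thiol reacts with DTNB, monitored at 415 nm. IC50 (nM) from inhibition curves of normalized values.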

For the next assay, the target named is T4, ADAM10 (Homo sapiens, UniProt O14672).
T4 construct: purchased AnaSpec, Inc. AS-72226
T4 sequence (O14672 214-748): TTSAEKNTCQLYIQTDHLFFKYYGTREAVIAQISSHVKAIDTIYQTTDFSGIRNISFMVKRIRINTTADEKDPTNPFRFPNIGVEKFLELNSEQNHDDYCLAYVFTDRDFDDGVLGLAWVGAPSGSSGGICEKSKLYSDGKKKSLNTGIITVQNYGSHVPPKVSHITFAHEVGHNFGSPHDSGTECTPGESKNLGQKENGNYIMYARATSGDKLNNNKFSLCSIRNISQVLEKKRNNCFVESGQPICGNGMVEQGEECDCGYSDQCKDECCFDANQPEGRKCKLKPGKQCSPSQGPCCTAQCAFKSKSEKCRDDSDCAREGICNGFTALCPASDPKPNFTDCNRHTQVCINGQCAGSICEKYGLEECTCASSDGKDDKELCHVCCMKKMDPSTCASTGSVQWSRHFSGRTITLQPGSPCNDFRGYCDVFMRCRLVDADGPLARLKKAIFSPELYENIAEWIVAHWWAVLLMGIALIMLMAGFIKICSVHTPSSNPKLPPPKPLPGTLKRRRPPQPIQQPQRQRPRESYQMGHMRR
Kind of assay: SensoLyte 520 ADAM10 fluorometric activity assay (AnaSpec AS-72226). As for the experimental part:
The inhibitory activities of the compounds of the invention were assessed in 96-well microplate format using MMP1, MMP2, MMP9 and MMP13 colorimetric assay kits and TACE fluorometric assay kit from Enzo Life Sciences, Inc. The inhibitory effect of the compounds of the invention on ADAM10 activity were evaluated in 96-well microplate format using fluorometric assay from AnaSpec, Inc.
SensoLyte® 520 ADAM10 Activity Assay Kit (catalog #AS-72226) is a complete assay system designed to screen ADAM10 inhibitors using FRET-based peptide substrate containing the 5-FAM/QXL™ 520 fluorophore/quencher pair. The fluorescence of 5-FAM is quenched by QXL™ 520 and recovered upon cleavage of the peptide by active ADAM10.
The inhibitory activity of the compounds of the invention against ADAM10 was tested according to the manufacturer's assay protocol and the fluorescence was monitored at excitation/emission wavelengths=495 nm/520 nm using Tecan Infinite® 200 Pro F Nano^+ microplate reader.
The normalized values were analyzed using GraphPadPrism 9 for Windows (GraphPad Software, San Diego, CA, USA) software by plotting inhibition curves and determining the IC50 values (in nM).

Where [1] appears, read: FRET peptide substrate, ex/em 495/520 nm, read-out: ADAM 10 IC50 class.

The record followed here is US20250215010A1, “DIAZABICYCLOOCTANE DERIVATIVES USEFUL AS MATRIX METALLOPROTEINASE INHIBITORS” (VASA THERAPEUTICS SPOLKA Z OGRANICZONA ODPOWIEDZIALNOSCIA, priority 2022, published 2025).

pIC50: −log10 of the molar value. Like-named read-outs stand apart in the source and are kept apart here.

Chain of ADAM17 (TACE) (P78536 215-477 limits assumed): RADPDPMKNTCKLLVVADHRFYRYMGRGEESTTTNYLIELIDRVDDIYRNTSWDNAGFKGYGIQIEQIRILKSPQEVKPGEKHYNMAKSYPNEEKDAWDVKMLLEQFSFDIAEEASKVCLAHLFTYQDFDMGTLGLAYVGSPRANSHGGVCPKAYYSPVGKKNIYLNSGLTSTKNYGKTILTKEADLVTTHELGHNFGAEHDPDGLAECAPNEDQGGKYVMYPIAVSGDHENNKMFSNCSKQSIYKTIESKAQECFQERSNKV

As usually defined, the pIC50 is −log10 of the IC50, conventionally taken in molar units. As for `COCCOC(=O)N1[C@@H]2CC[C@H]1[C@H](C(=O)NO)N(S(=O)(=O)c1ccc(Oc3ccc(OC(C)C)cc3)nc1)C2` [Example 30, 2-methoxyethyl (1S,2R,5R)-2-(hydroxycarbamoyl)-3-((6-(4-isopropoxy-phenoxy)pyridin-3-yl)sulfonyl)-3,8-diazabicyclo[3.2.1]-octane-8-carboxylate], the pIC50 at ADAM17 (TACE) is 5.00 to 6.00; on MMP2, above 7.30; at MMP9, above 7.30; on MMP13, above 7.30; on MMP1, 6.00 to 7.30; on ADAM10 (setting [1]), below 5.00.

In the case of `COCCOC(=O)N1[C@@H]2CC[C@H]1[C@H](C(=O)NO)N(S(=O)(=O)c1ccc(Oc3cnn(C)c3)c(F)c1)C2` [Example 41, 2-methoxyethyl (1S,2R,5R)-3-((3-fluoro-4-((1-methyl-1H-pyrazol-4-yl)oxy)phenyl)sulfonyl)-2-(hydroxycarbamoyl)-3,8-diazabicyclo[3.2.1]octane-8-carboxylate], the pIC50 on ADAM17 (TACE) is 6.00 to 7.30; on MMP2, above 7.30; at MMP9, above 7.30; on MMP13, above 7.30; on MMP1, above 7.30; on ADAM10 (setting [1]), 6.00 to 7.30.

As to `COCCOC(=O)N1[C@@H]2CC[C@H]1[C@H](C(=O)NO)N(S(=O)(=O)c1ccc(Oc3ccc(Cl)c(F)c3)nc1)C2` [Example 9, 2-methoxyethyl (1S,2R,5R)-3-((6-(4-chloro-3-fluoro-phenoxy)pyridin-3-yl)sulfonyl)-2-(hydroxycarbamoyl)-3,8-diaza-bicyclo[3.2.1]octane-8-carboxylate], the pIC50 is 6.00 to 7.30 on ADAM17 (TACE); above 7.30 on MMP2; above 7.30 at MMP9; above 7.30 at MMP13; 6.00 to 7.30 at MMP1; 5.00 to 6.00 at ADAM10 (setting [1]).

Regarding `COCCOC(=O)N1[C@@H]2CC[C@H]1[C@H](C(=O)NO)N(S(=O)(=O)c1ccc(Oc3ccc(OC)nc3)nc1)C2` [Example 28, 2-methoxyethyl (1S,2R,5R)-2-(hydroxycarbamoyl)-3-((6-((6-methoxy-pyridin-3-yl)oxy)-pyridin-3-yl)-sulfonyl)-3,8-diaza-bicyclo[3.2.1]octane-8-carboxylate], the pIC50 at ADAM17 (TACE) was 5.00 to 6.00; on MMP2, above 7.30; at MMP9, above 7.30; at MMP13 it was above 7.30; on MMP1, 6.00 to 7.30; at ADAM10 (setting [1]), below 5.00.

With `COc1ccc(Oc2ccc(S(=O)(=O)N3C[C@H]4CC[C@@H]([C@@H]3C(=O)NO)N4C(=O)N3CCOCC3)cn2)cc1F` [Example 73, (1S,2R,5R)-3-((6-(3-fluoro-4-methoxy-phenoxy)pyridin-3-yl)-sulfonyl)-N-hydroxy-8-(morpholine-4-carbonyl)-3,8-diazabicyclo[3.2.1]-octane-2-carboxamide], the pIC50 was 5.00 to 6.00 at ADAM17 (TACE); above 7.30 at MMP2; above 7.30 at MMP9; above 7.30 on MMP13; below 5.00 at MMP1; 5.00 to 6.00 on ADAM10 (setting [1]).

For the compound `O=C(NO)[C@H]1[C@@H]2CC[C@H](CN1S(=O)(=O)c1ccc(Oc3ccc(OC(F)(F)F)cc3)nc1)N2C(=O)N1CCOCC1` [Example 70, (1S,2R,5R)-N-hydroxy-8-(morpholine-4-carbonyl)-3-((6-(4-(trifluoromethoxy)-phenoxy)pyridin-3-yl)sulfonyl)-3,8-diazabicyclo[3.2.1]-octane-2-carboxamide], the pIC50 at ADAM17 (TACE) was 5.00 to 6.00; at MMP2, above 7.30; on MMP9 it was above 7.30; at MMP13, above 7.30; at MMP1, below 5.00; on ADAM10 (setting [1]), below 5.00.

On to `COCCOC(=O)N1[C@@H]2CC[C@H]1[C@H](C(=O)NO)N(S(=O)(=O)c1ccc(Oc3cnn(-c4ccccc4)c3)nc1)C2` [Example 39, 2-methoxyethyl (1S,2R,5R)-2-(hydroxycarbamoyl)-3-((6-((1-phenyl-1H-pyrazol-4-yl)oxy)-pyridin-3-yl)sulfonyl)-3,8-diazabicyclo-[3.2.1]octane-8-carboxylate], for which the pIC50 at ADAM17 (TACE) was 6.00 to 7.30; on MMP2 it was above 7.30; on MMP9, above 7.30; on MMP13, above 7.30; on MMP1, 6.00 to 7.30; on ADAM10 (setting [1]) it was below 5.00.

Consider `COCCOC(=O)N1[C@@H]2CC[C@H]1[C@H](C(=O)NO)N(S(=O)(=O)c1ccc(Oc3ccc(F)cc3F)nc1)C2` [Example 21, 2-methoxyethyl (1S,2R,5R)-3-((6-(2,4-difluoro-phenoxy)pyridin-3-yl)sulfonyl)-2-(hydroxycarbamoyl)-3,8-diazabicyclo-[3.2.1]octane-8-carboxylate], for which the pIC50 on ADAM17 (TACE) is 6.00 to 7.30; on MMP2, above 7.30; at MMP9 it was above 7.30; on MMP13 it was above 7.30; at MMP1 it was 6.00 to 7.30; on ADAM10 (setting [1]), below 5.00.

On to `COCCOC(=O)N1[C@@H]2CC[C@H]1[C@H](C(=O)NO)N(S(=O)(=O)N1CCC(Oc3ccc(C(F)(F)F)cc3)CC1)C2` [Example 48, 2-methoxyethyl (1S,2R,5R)-2-(hydroxy-carbamoyl)-3-((4-(4-(trifluoromethyl)phenoxy)-piperidin-1-yl)-sulfonyl)-3,8-diazabicyclo-[3.2.1]octane-8-carboxylate], for which the pIC50 is above 7.30 at ADAM17 (TACE); above 7.30 at MMP2; above 7.30 at MMP9; above 7.30 on MMP13; 5.00 to 6.00 on MMP1; 6.00 to 7.30 on ADAM10.
